Species: Rattus norvegicus
Assay: Open TG-GATES - Regimen: Single
Assay type: toxicity, organism-based, Sprague-Dawley
Set-up: regimen Single, gender Male, age 6 weeks
Settings: in vivo, po, 0 mg/kg, route gavage, dose level Control; for APTT / Bas / Eos / Fbg / Hb / Lym / MCH / MCHC / MCV / Mono / Neu / PT / RBC / Ret / WBC: tissue Blood; for KIDNEY_L / KIDNEY_R / KIDNEY_TOTAL: tissue Kidney; for ALT / AST / CRE / DBIL / IP / K / LDH / Na / RALB / TBIL / TC / TG / TP / gamma-GTP / ALP: tissue Plasma

Cc1cnc(NC(=O)C2=C(O)c3ccccc3S(=O)(=O)N2C)s1 [MELOXICAM]
TERMINAL_BW (3 h): 226.2 g
APTT (3 h): 17.9 s
Bas (3 h): 0.4%
Eos (3 h): 1%
Fbg (3 h): 222.8 mg/dL
Hb (3 h): 13.4 g/dL
Lym (3 h): 78.6%
MCH (3 h): 21.2 pg
MCHC (3 h): 34.1%
MCV (3 h): 62.3 fL
Mono (3 h): 2%
Neu (3 h): 17.6%
PT (3 h): 11.8 s
RBC (3 h): 633.2 x10_4/ul
Ret (3 h): 7%
WBC (3 h): 78.8 x10_2/uL
KIDNEY_L (3 h): 1 g
KIDNEY_R (3 h): 1 g
KIDNEY_TOTAL (3 h): 2 g
ALT (3 h): 37.6 IU/L
AST (3 h): 68 IU/L
CRE (3 h): 0.4 mg/dL
DBIL (3 h): 0.06 mg/dL
IP (3 h): 9.3 mg/dL
K (3 h): 3.7 meq/L
LDH (3 h): 149.4 IU/L
Na (3 h): 141.4 meq/L
RALB (3 h): 3.4 g/dL
TBIL (3 h): 0.1 mg/dL
TC (3 h): 79.6 mg/dL
TG (3 h): 61.6 mg/dL
TP (3 h): 5.4 g/dL
gamma-GTP (3 h): 1 IU/L
TERMINAL_BW (6 h): 224.5 g
Bas (6 h): 0.6%
Eos (6 h): 0.6%
Fbg (6 h): 235.8 mg/dL
Lym (6 h): 75.2%
MCH (6 h): 21.8 pg
MCHC (6 h): 33.8%
MCV (6 h): 64.4 fL
Mono (6 h): 3.2%
Neu (6 h): 19.8%
PT (6 h): 12.6 s
RBC (6 h): 625.4 x10_4/ul
Ret (6 h): 7.3%
WBC (6 h): 110.7 x10_2/uL
KIDNEY_L (6 h): 1 g
KIDNEY_R (6 h): 1 g
KIDNEY_TOTAL (6 h): 2 g
ALP (6 h): 739.4 IU/L
ALT (6 h): 31.4 IU/L
AST (6 h): 61.6 IU/L
CRE (6 h): 0.3 mg/dL
DBIL (6 h): 0.066 mg/dL
IP (6 h): 9.5 mg/dL
K (6 h): 3.9 meq/L
LDH (6 h): 153 IU/L
Na (6 h): 141.4 meq/L
RALB (6 h): 3.3 g/dL
TBIL (6 h): 0.1 mg/dL
TC (6 h): 74.8 mg/dL
TG (6 h): 55.2 mg/dL
TP (6 h): 5.4 g/dL
gamma-GTP (6 h): 0.8 IU/L
TERMINAL_BW (9 h): 222.3 g
APTT (9 h): 17.6 s
Bas (9 h): 0.2%
Eos (9 h): 1%
Fbg (9 h): 233.2 mg/dL
Hb (9 h): 13.5 g/dL
Lym (9 h): 72.4%
MCH (9 h): 22.1 pg
MCHC (9 h): 34.1%
MCV (9 h): 64.8 fL
Mono (9 h): 3%
Neu (9 h): 22.4%
PT (9 h): 12.6 s
RBC (9 h): 610.8 x10_4/ul
Ret (9 h): 7.2%
WBC (9 h): 88.3 x10_2/uL
KIDNEY_L (9 h): 1 g
KIDNEY_R (9 h): 1 g
KIDNEY_TOTAL (9 h): 2.1 g
ALP (9 h): 910.8 IU/L
ALT (9 h): 29.6 IU/L
AST (9 h): 62.6 IU/L
CRE (9 h): 0.4 mg/dL
DBIL (9 h): 0.068 mg/dL
IP (9 h): 9.5 mg/dL
K (9 h): 4 meq/L
LDH (9 h): 153.2 IU/L
Na (9 h): 141.6 meq/L
RALB (9 h): 3.4 g/dL
TBIL (9 h): 0.1 mg/dL
TC (9 h): 70.6 mg/dL
TG (9 h): 78.8 mg/dL
TP (9 h): 5.5 g/dL
gamma-GTP (9 h): 1.2 IU/L
TERMINAL_BW (24 h): 238.2 g
Bas (24 h): 0.6%
Eos (24 h): 1.2%
Fbg (24 h): 224.8 mg/dL
Lym (24 h): 78.6%
MCH (24 h): 21.1 pg
MCHC (24 h): 33.9%
MCV (24 h): 62.4 fL
Mono (24 h): 2.6%
Neu (24 h): 16.4%
PT (24 h): 11.7 s
RBC (24 h): 646.8 x10_4/ul
Ret (24 h): 6.4%
KIDNEY_L (24 h): 1 g
KIDNEY_R (24 h): 1 g
KIDNEY_TOTAL (24 h): 2 g
ALP (24 h): 981.2 IU/L
ALT (24 h): 32.6 IU/L
AST (24 h): 62.6 IU/L
CRE (24 h): 0.4 mg/dL
DBIL (24 h): 0.098 mg/dL
IP (24 h): 7.5 mg/dL
K (24 h): 3.9 meq/L
LDH (24 h): 161 IU/L
Na (24 h): 142.4 meq/L
RALB (24 h): 3.4 g/dL
TBIL (24 h): 0.2 mg/dL
TC (24 h): 74.2 mg/dL
TG (24 h): 125.4 mg/dL
TP (24 h): 5.5 g/dL

Source: ChEMBL document CHEMBL3885861, “Open TG-GATES”
